Key:
[1] = Singlet oxygen quantum yield in DMF with DPBF as probe; assay type: physicochemical; details: irradiation λ > 610 nm, relative to ZnPc (ΦΔ = 0.56 in DMF)
Source text: The singlet oxygen generation efficiency of 1 was then studied and compared with that of 8, 14, and ZnPc in all these media using 1,3-diphenylisobenzofuran (DPBF) as the singlet oxygen probe.[67] The absorbance of DPBF’s absorption at 415 nm (in DMF) or 417 nm (in PBS and the buffer) was monitored during light irradiation (λ > 610 nm). Figures S4–S6 show the changes in the absorption spectra of the mixtures in DMF, PBS, and the buffer, respectively, upon irradiation. […] The singlet oxygen quantum yields (ΦΔ) were also determined in DMF. […]
(§1) where W and Iabs are the DPBF photobleaching rate and the rate of light absorption, […]
(§2) MMP-2 and Cathepsin B-Responsive Spectroscopic Studies
Compound 1 or 14 was dissolved in DMF to form a 1 mM stock solution, which was then diluted to 1 μM with PBS at pH 7.4 or buffer solution (pH 5.0, 25 mM NaOAc, 1 mM EDTA, 500 μM GSH), both in the presence of 0.1% Tween 80 (v/v) . For the MMP-2-responsive studies, the solutions in PBS were treated with MMP-2 (2 μg mL-1). For the cathepsin B-responsive studies, the solutions in buffer solution were treated with cathepsin B (1 unit mL-1). […]
All of the solutions were stirred continuously at 37 °C. The ir electronic absorption and fluorescence spectra were monitored over a period of 25 h. […]

MMP-2 and cathepsin B = assay: Dual-enzyme (sequential MMP-2 then cathepsin B) activation: fluorescence, singlet oxygen, LC-MS; assay type: biochemical; details: for singlet oxygen generation (DPBF decay at 417 nm) after enzyme treatment: DPBF 30 μM, sequential MMP-2 and cathepsin B, irradiation λ > 610 nm, 300 s
Protocol: To study the dual-enzyme-activated effect, PMB 1 was first treated with MMP-2 (2 μg mL^–1) in PBS for 6 h, followed by the addition of NaOAc, EDTA, and GSH and adjustment of the pH to 5.0 to create a working environment for cathepsin B. This enzyme (1 unit mL^–1) was then added, and the mixture was stirred for a further 19 h. […] The intensity at 25 h was almost the same as that at 24 h, which could be regarded as full activation, arising from the complete separation of the two components. In contrast, the absorption and fluorescence spectra of 14 remained unchanged upon this treatment (Figure S10).
The fluorescence recovery was then determined for 1 under the aforementioned conditions, assuming that the fluorescence intensity of 8 at the same concentration in the same medium was the maximum fluorescence intensity that could be recovered. The results are depicted in Figure 3c. […] In addition, we also determined the corresponding on/off ratios by dividing the fluorescence intensity at 25 h by the initial fluorescence intensity under each of these conditions. […] For 14, the ratios were below 1.5 under all the conditions, showing that the effect of the two enzymes was negligible for this conjugate.
Apart from the activation in fluorescence emission, the activation of 1 in singlet oxygen generation was also studied. PMB 1 (1 μM) was treated with MMP-2 and/or cathepsin B as described above and then mixed with DPBF (30 μM). The absorption spectra of these mixtures were monitored during light irradiation (λ > 610 nm) over a period of 300 s. […] The decrease in absorbance became more substantial for 1 after the treatment with both enzymes. As expected, the changes were negligible for 14 under all conditions (Figure S12).
To study the dual-enzyme-activated effect, PMB 1 was treated with MMP-2 (for 6 h) and cathepsin B (for 19 h) sequentially as mentioned above. […]
as §1, §2
Compound 1 or 14 was dissolved in DMF to form a 1 mM stock solution, which was then diluted to 1 μM with PBS at pH 7.4 or buffer solution (pH 5.0, 25 mM NaOAc, 1 mM EDTA, 500 μM GSH), both in the presence of 0.1% Tween 80 (v/v) . For the MMP-2-responsive studies, the solutions in PBS were treated with MMP-2 (2 μg mL-1). For the cathepsin B-responsive studies, the solutions in buffer solution were treated with cathepsin B (1 unit mL-1). For the dual-enzyme-responsive studies, the solutions in PBS were first treated with MMP-2 (2 μg mL-1) for 6 h, followed by the treatment with cathepsin B (1 unit mL-1) after the addition of NaOAc, EDTA, and GSH and adjustment of the pH, turning into the conditions of the buffer solution.
All of the solutions were stirred continuously at 37 °C. The ir electronic absorption and fluorescence spectra were monitored over a period of 25 h.
MMP-2- and Cathepsin B-Responsive Singlet Oxygen Generation Studies […]
halogen lamp after passing through a water tank for cooling and a color glass filter (Newport) cut-on at λ = 610 nm. The decay of DPBF at λ = 417 nm was monitored with a spectrophotometer during the irradiation period. […]
According to the above procedure, 1 and 14 were treated with MMP-2 and cathepsin B. After a period of 25 h, MeOH was added into the solutions for precipitating the enzymes. After filtration, the filtrate was analyzed by LC-MS using the aforementioned conditions. […]

[2] = tested on: A549 tumor-bearing nude mice; assay: In vivo PDT; set-up: species or system Balb/c nude mice; details: for H&E staining of major organs, Day 14 / H&E staining of tumor, Day 14 / change in body weight over 14 days: intratumoral 20 nmol + laser 680 nm, 180 J cm-2; for change in body weight over 14 days / tumor size over 14 days: n = 4; for tumor size over 14 days: intratumoral 20 nmol, laser 680 nm, 0.3 W cm-2, 10 min (180 J cm-2) at 6 h post-injection
Protocol: To further examine the in vivo PDT efficacy of 1, A549 tumor-bearing nude mice were first intratumorally injected with 1 or the non-cleavable control 14 (20 nmol) in 20 μL of distilled water containing 7.5% dimethyl sulfoxide (DMSO) and 0.5% Tween 80 (v/v). After 6 h, when the difference in tumoral fluorescence intensity was the largest between the two conjugates (Figure 7b), the tumor was irradiated with a diode laser at 680 nm (0.3 W cm^–2) for 10 min. As another negative control, another group of mice were injected with PBS only without the laser treatment. The tumor size of all mice was monitored continuously for 14 days after the different treatments.
The body weight of the mice was also monitored during the course of these treatments (Figure 7e). […] In addition, the PDT effect on the tumor and major organs was further investigated by hematoxylin and eosin (H&E) staining.
A549 tumor-bearing nude mice were prepared as described above. The length and width of the tumor were measured using a micrometer digital caliper (SCITOP Systems). The tumor volume (mm3) was calculated using the formula: tumor volume = (length × width2)/2. Once the tumors had grown to a size of 80 –100 mm3, 1 or 14 (20 nmol) dissolved in 20 μL of distilled water containing 7.5% DMSO and 0.5% Tween 80 (v/v) was injected to the tumor -bearing mice through intratu moral injection. At 6 h post-injection, the tumor was illuminated with a diode […]
The tumor size o f the nude mice was monitored periodically for the next 14 days. The tumor volumes were also compared with a PBS control group of mice without the light treatment.
Four mice were used for each group. On Day 14 after the PDT treatment, the mice were sacrificed, and the tumor and major organs were harvested. The tissues were fixed with 4% […]
and embedded in paraffin. […]

SMILES | ΦΔ (singlet oxygen quantum yield) [1] | singlet oxygen generation (DPBF decay at 417 nm) after enzyme treatment (MMP-2 and cathepsin B; 1 μM) | H&E staining of major organs, Day 14 [2] | H&E staining of tumor, Day 14 [2] | change in body weight over 14 days [2] | tumor size over 14 days [2] | on/off ratio (fluorescence intensity at 25 h / initial intensity) (MMP-2 and cathepsin B; 1 μM, MMP-2 6 h then cathepsin B 19 h, 37 °C) | fluorescence recovery (MMP-2 and cathepsin B; 1 μM, MMP-2 (2 μg mL-1) in PBS 6 h, then cathepsin B (1 unit mL-1) pH 5.0 buffer 19 h, 37 °C, relative to 8) | LC-MS signal of intact compound after enzyme treatment (MMP-2 and cathepsin B; MMP-2 6 h then cathepsin B 19 h, fragments 17 and 18 formed)
CCN(CC)c1ccc2nc3ccc(/N=N/c4ccc(N(C)CCCNC(=O)OC[C@@H]5[C@@H]6CCc7nnn(CC(=O)NCCCC[C@@H]8NC(=O)CNC(=O)[C@H](CCCCN)NC(=O)CNC(=O)CNC(=O)CNC(=O)CNC(=O)CNC(=O)[C@H](CCCCN)NC(=O)[C@@H](N)CSCc9cc(COc%10ccc(C%11=C%12C(C)=C(I)C(/C=C/c%13ccc(OCCOCCOCCOC)cc%13)=[N+]%12[B-](F)(F)n%12c(/C=C/c%13ccc(OCCOCCOCCOC)cc%13)c(I)c(C)c%12%11)cc%10)cc(c9)CSC[C@@H](C(N)=O)NC(=O)[C@H](CCCCN)NC(=O)[C@H](CCCCN)NC(=O)CNC(=O)CNC(=O)CNC(=O)CNC(=O)[C@H](CCCCN)NC(=O)CNC8=O)c7CC[C@@H]65)cc4)cc3[n+](-c3ccccc3)c2c1 [compound 14] | 0.02 | negligible | no apparent damage | no apparent damage | negligible change | grew continuously |  |  | 
CCN(CC)c1ccc2nc3ccc(/N=N/c4ccc(N(C)CCCNC(=O)OC[C@@H]5[C@@H]6CCc7nnn(CC(=O)NCCCC[C@@H]8NC(=O)CNC(=O)[C@H](CCCCN)NC(=O)[C@H](CCCNC(=N)N)NC(=O)[C@H](C(C)C)NC(=O)CNC(=O)[C@H](CC(C)C)NC(=O)[C@@H]9CCCN9C(=O)[C@H](CCCCN)NC(=O)[C@@H](N)CSCc9cc(COc%10ccc(C%11=C%12C(C)=C(I)C(/C=C/c%13ccc(OCCOCCOCCOC)cc%13)=[N+]%12[B-](F)(F)n%12c(/C=C/c%13ccc(OCCOCCOCCOC)cc%13)c(I)c(C)c%12%11)cc%10)cc(c9)CSC[C@@H](C(N)=O)NC(=O)[C@H](CCCCN)NC(=O)[C@H](CCCCN)NC(=O)CNC(=O)[C@H](CC(C)C)NC(=O)[C@H](Cc9ccccc9)NC(=O)CNC(=O)[C@H](CCCCN)NC(=O)CNC8=O)c7CC[C@@H]65)cc4)cc3[n+](-c3ccccc3)c2c1 [compound 1] | 0.02 | turned on remarkably | no apparent damage | significant cellular damage and necrosis | negligible change | greatly reduced | 16 | 85% | disappearance of the signal of 1
